According to ChEMBL document CHEMBL1201862, “PubChem BioAssay data set” (2004):
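In this assay, cells in 96-well plates receive the compound at five concentrations for 48 hours. Endpoints are linearly interpolated between the surrounding concentrations. Abbreviation: GI50, concentration required for 50% inhibition of growth.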 Active and inactive are the calls of the source. No stated cut-off is given here; in the data, active = GI50 up to about 1.1 µM and inactive = higher.

Columns and labels:
Assay in all cases: NCI anticancer screen, dose series, 48 h
DMS-114 = tested on: DMS-114
786-0 = tested on: 786-0
NCI-H226 = tested on: NCI-H226
CAKI-1 = tested on: CAKI-1
UACC-62 = tested on: UACC-62
SK-MEL-28 = tested on: SK-MEL-28
UACC-257 = tested on: UACC-257
NCI-H460 = tested on: NCI-H460
M14 = tested on: M14
CCRF-CEM = tested on: CCRF-CEM
SF-539 = tested on: SF-539
SNB-78 = tested on: SNB-78
OVCAR-3 = tested on: OVCAR-3
UO-31 = tested on: UO-31
OVCAR-4 = tested on: OVCAR-4
LOX IMVI = tested on: LOX IMVI
SK-MEL-5 = tested on: SK-MEL-5
SW-620 = tested on: SW-620
HCT-15 = tested on: HCT-15
HOP-18 = tested on: HOP-18
NCI-H23 = tested on: NCI-H23
HOP-62 = tested on: HOP-62
A498 = tested on: A498
HOP-92 = tested on: HOP-92
M19-MEL = tested on: M19-MEL
COLO 205 = tested on: COLO 205
OVCAR-5 = tested on: OVCAR-5
HCC 2998 = tested on: HCC 2998
TK-10 = tested on: TK-10
HCT-116 = tested on: HCT-116
SR = tested on: SR
U-251 = tested on: U-251
SK-MEL-2 = tested on: SK-MEL-2
Malme-3M = tested on: Malme-3M
IGROV-1 = tested on: IGROV-1
SF-268 = tested on: SF-268
DLD-1 = tested on: DLD-1
SNB-19 = tested on: SNB-19
SF-295 = tested on: SF-295
LXFL 529 = tested on: LXFL 529
DMS-273 = tested on: DMS-273
A549 = tested on: A549
SN12C = tested on: SN12C
NCI-H522 = tested on: NCI-H522
SNB-75 = tested on: SNB-75
RPMI-8226 = tested on: RPMI-8226
KM-20L2 = tested on: KM-20L2
OVCAR-8 = tested on: OVCAR-8
EKVX = tested on: EKVX
SK-OV-3 = tested on: SK-OV-3
HT-29 = tested on: HT-29
KM12 = tested on: KM12
MOLT-4 = tested on: MOLT-4
K562 = tested on: K562
ACHN = tested on: ACHN
HL-60 = tested on: HL-60
XF498 = tested on: XF498
RXF 393 = tested on: RXF 393

Q: `O=C1OC2(c3ccccc3Oc3ccccc32)c2ccccc21` was tested. Which GI50 (DMS-114) did it give?
A: > 100 µM (inactive)

Q: What about the GI50 (786-0) of the same compound?
A: > 100 µM (inactive)

Q: And the GI50 (NCI-H226)?
A: > 100 µM (inactive)

Q: What about the GI50 (CAKI-1) of the same compound?
A: > 100 µM (inactive)

Q: And the GI50 (UACC-62)?
A: > 100 µM (inactive)

Q: And the GI50 (SK-MEL-28)?
A: > 100 µM (inactive)

Q: And the GI50 (UACC-257)?
A: 99.5 µM (inactive)

Q: What about the GI50 (NCI-H460) of the same compound?
A: > 100 µM (inactive)

Q: What about the GI50 (M14) of the same compound?
A: > 100 µM (inactive)

Q: What about the GI50 (CCRF-CEM) of the same compound?
A: > 100 µM (inactive)

Q: What about the GI50 (SF-539) of the same compound?
A: > 100 µM (inactive)

Q: And the GI50 (SNB-78)?
A: > 100 µM (inactive)

Q: And the GI50 (OVCAR-3)?
A: > 100 µM (inactive)

Q: And the GI50 (UO-31)?
A: > 100 µM (inactive)

Q: And the GI50 (OVCAR-4)?
A: > 100 µM (inactive)

Q: And the GI50 (LOX IMVI)?
A: > 100 µM (inactive)

Q: What about the GI50 (SK-MEL-5) of the same compound?
A: > 100 µM (inactive)

Q: What about the GI50 (SW-620) of the same compound?
A: > 100 µM (inactive)

Q: What about the GI50 (HCT-15) of the same compound?
A: > 100 µM

Q: What about the GI50 (HOP-18) of the same compound?
A: > 100 µM (inactive)

Q: What about the GI50 (NCI-H23) of the same compound?
A: > 100 µM (inactive)

Q: What about the GI50 (HOP-62) of the same compound?
A: > 100 µM (inactive)

Q: What about the GI50 (A498) of the same compound?
A: > 100 µM (inactive)

Q: What about the GI50 (HOP-92) of the same compound?
A: > 100 µM (inactive)

Q: What about the GI50 (M19-MEL) of the same compound?
A: > 100 µM (inactive)

Q: What about the GI50 (COLO 205) of the same compound?
A: > 100 µM (inactive)

Q: What about the GI50 (OVCAR-5) of the same compound?
A: > 100 µM (inactive)

Q: And the GI50 (HCC 2998)?
A: > 100 µM (inactive)

Q: What about the GI50 (TK-10) of the same compound?
A: > 100 µM (inactive)

Q: And the GI50 (HCT-116)?
A: > 100 µM (inactive)

Q: What about the GI50 (SR) of the same compound?
A: > 100 µM (inactive)

Q: What about the GI50 (U-251) of the same compound?
A: > 100 µM (inactive)

Q: And the GI50 (SK-MEL-2)?
A: > 100 µM (inactive)

Q: And the GI50 (Malme-3M)?
A: > 100 µM (inactive)

Q: And the GI50 (IGROV-1)?
A: > 100 µM (inactive)

Q: What about the GI50 (SF-268) of the same compound?
A: > 100 µM (inactive)

Q: What about the GI50 (DLD-1) of the same compound?
A: > 100 µM (inactive)

Q: What about the GI50 (SNB-19) of the same compound?
A: > 100 µM (inactive)

Q: What about the GI50 (SF-295) of the same compound?
A: > 100 µM (inactive)

Q: What about the GI50 (LXFL 529) of the same compound?
A: > 100 µM (inactive)

Q: What about the GI50 (DMS-273) of the same compound?
A: > 100 µM (inactive)

Q: And the GI50 (A549)?
A: > 100 µM (inactive)

Q: And the GI50 (SN12C)?
A: > 100 µM (inactive)

Q: And the GI50 (NCI-H522)?
A: 69.8 µM (inactive)

Q: What about the GI50 (SNB-75) of the same compound?
A: > 100 µM (inactive)

Q: And the GI50 (RPMI-8226)?
A: > 100 µM (inactive)

Q: And the GI50 (KM-20L2)?
A: > 100 µM (inactive)

Q: What about the GI50 (OVCAR-8) of the same compound?
A: > 100 µM (inactive)

Q: And the GI50 (EKVX)?
A: > 100 µM (inactive)

Q: And the GI50 (SK-OV-3)?
A: > 100 µM (inactive)

Q: What about the GI50 (HT-29) of the same compound?
A: > 100 µM (inactive)

Q: And the GI50 (KM12)?
A: > 100 µM (inactive)

Q: And the GI50 (MOLT-4)?
A: > 100 µM (inactive)

Q: What about the GI50 (K562) of the same compound?
A: 50.8 µM (inactive)

Q: And the GI50 (ACHN)?
A: > 100 µM (inactive)

Q: And the GI50 (HL-60)?
A: 99.8 µM (inactive)

Q: How did the GI50 (DMS-114) turn out when `Cn1cccc(C(=O)c2ccccc2)c1=O` was run?
A: > 100 µM (inactive)

Q: And the GI50 (786-0)?
A: > 100 µM (inactive)

Q: What about the GI50 (NCI-H226) of the same compound?
A: > 100 µM (inactive)

Q: What about the GI50 (CAKI-1) of the same compound?
A: > 100 µM (inactive)

Q: And the GI50 (UACC-62)?
A: > 100 µM (inactive)

Q: And the GI50 (SK-MEL-28)?
A: > 100 µM (inactive)

Q: And the GI50 (UACC-257)?
A: > 100 µM (inactive)

Q: What about the GI50 (NCI-H460) of the same compound?
A: > 100 µM (inactive)

Q: What about the GI50 (M14) of the same compound?
A: > 100 µM (inactive)

Q: And the GI50 (CCRF-CEM)?
A: > 100 µM (inactive)

Q: And the GI50 (SF-539)?
A: > 100 µM (inactive)

Q: And the GI50 (SNB-78)?
A: > 100 µM (inactive)

Q: What about the GI50 (OVCAR-3) of the same compound?
A: > 100 µM (inactive)

Q: And the GI50 (UO-31)?
A: > 100 µM (inactive)

Q: And the GI50 (OVCAR-4)?
A: > 100 µM (inactive)

Q: What about the GI50 (LOX IMVI) of the same compound?
A: > 100 µM (inactive)

Q: What about the GI50 (SK-MEL-5) of the same compound?
A: > 100 µM (inactive)

Q: What about the GI50 (SW-620) of the same compound?
A: > 100 µM (inactive)

Q: What about the GI50 (HCT-15) of the same compound?
A: > 100 µM

Q: What about the GI50 (NCI-H23) of the same compound?
A: > 100 µM (inactive)

Q: What about the GI50 (HOP-62) of the same compound?
A: > 100 µM (inactive)

Q: What about the GI50 (HOP-92) of the same compound?
A: > 100 µM (inactive)

Q: And the GI50 (M19-MEL)?
A: > 100 µM (inactive)

Q: And the GI50 (COLO 205)?
A: > 100 µM (inactive)

Q: What about the GI50 (OVCAR-5) of the same compound?
A: > 100 µM (inactive)

Q: What about the GI50 (HCC 2998) of the same compound?
A: > 100 µM (inactive)

Q: And the GI50 (TK-10)?
A: > 100 µM (inactive)

Q: What about the GI50 (HCT-116) of the same compound?
A: > 100 µM (inactive)

Q: What about the GI50 (SR) of the same compound?
A: > 100 µM (inactive)

Q: What about the GI50 (U-251) of the same compound?
A: > 100 µM (inactive)

Q: And the GI50 (SK-MEL-2)?
A: > 100 µM (inactive)

Q: And the GI50 (Malme-3M)?
A: > 100 µM (inactive)

Q: What about the GI50 (IGROV-1) of the same compound?
A: > 100 µM (inactive)

Q: What about the GI50 (SF-268) of the same compound?
A: > 100 µM (inactive)

Q: And the GI50 (DLD-1)?
A: > 100 µM (inactive)

Q: And the GI50 (SNB-19)?
A: > 100 µM (inactive)

Q: And the GI50 (SF-295)?
A: > 100 µM (inactive)

Q: What about the GI50 (LXFL 529) of the same compound?
A: > 100 µM (inactive)

Q: What about the GI50 (DMS-273) of the same compound?
A: > 100 µM (inactive)

Q: What about the GI50 (A549) of the same compound?
A: > 100 µM (inactive)

Q: What about the GI50 (SN12C) of the same compound?
A: > 100 µM (inactive)

Q: And the GI50 (NCI-H522)?
A: > 100 µM (inactive)

Q: And the GI50 (XF498)?
A: > 100 µM (inactive)

Q: And the GI50 (SNB-75)?
A: > 100 µM (inactive)

Q: And the GI50 (RPMI-8226)?
A: > 100 µM (inactive)

Q: What about the GI50 (KM-20L2) of the same compound?
A: > 100 µM (inactive)

Q: And the GI50 (OVCAR-8)?
A: > 100 µM (inactive)

Q: What about the GI50 (EKVX) of the same compound?
A: > 100 µM (inactive)

Q: And the GI50 (SK-OV-3)?
A: > 100 µM (inactive)

Q: And the GI50 (HT-29)?
A: > 100 µM (inactive)

Q: And the GI50 (RXF 393)?
A: > 100 µM (inactive)

Q: And the GI50 (KM12)?
A: > 100 µM (inactive)

Q: What about the GI50 (MOLT-4) of the same compound?
A: > 100 µM (inactive)

Q: What about the GI50 (K562) of the same compound?
A: > 100 µM (inactive)

Q: And the GI50 (ACHN)?
A: > 100 µM (inactive)

Q: And the GI50 (HL-60)?
A: > 100 µM (inactive)
